Results taken from patent US11884932B2, “In vitro production of medial ganglionic eminence precursor cells” (The Regents of the University of California, priority 2013, dated 2024).

Key:
HES-3 NKX2.1GFP/w hESCs = test: NKX2.1-GFP+ differentiation efficiency of hESCs by FACS / flow cytometry; assay type: cell-based, human; details: for NKX2.1-GFP+ MGE precursor-like cell efficiency: KSR/B27 media
Experimental: HES-3 hESCs were maintained on irradiated mouse embryonic fibroblasts (Millipore) in knockout DMEM with 20% knockout serum replacement, 1% nonessential amino acids (NEAA), 1% pen-strep-glutamine, 0.0008% 2-mercaptoethanol, and 10 ng/mL FGF-basic (Invitrogen), Differentiation was initiated by CollagenaseIV/Dispase (1 mg/mL each; Invitrogen) preferential selection for hESC colonies. Colonies were trypsinized to single cells, and, as described (Eiraku, M., et al. (2008). Cell Stem Cell 3, 519-532), ˜10,000 cells/well were plated into low-attachment round-bottom 96-well plates (Corning or NOF) to form one sEB/well in optimized B27+5F; differentiation medium #1, consisting of Neurobasal-A, 2% B27-vitamin A (Invitrogen), and the same supplements in hESC media but without FGF. Also, Y27632 (10 μM), SB3431542 (10 μM), Purmorphamine (1-2 μM) (Stemgent), BMPRIA-Fc (1.5 μg/mL), and DIKK1 (1 μg/mL) (Invitrogen) were added.
On ˜d7, Y27632 was removed, and sEBs were plated adherent en-bloc onto matrigel (BD Biosciences) coated plates in medium #1. On ˜d14, factors were removed from medium #1 except for Purmorphamine. On ˜d25, aEBs were trypsinized and replated as dissociated monolayer onto matrigel or polyornithine/laminin coated plates. DAPT (10 μM) (Tocris) was added from ˜d27-d30. After FACS sorting on day ˜35, GFP+ cells could be replated (10-25,000 cells/cm2) onto cortical glial cells in medium #1. Glial cells were prepared from newborn mouse cortex, passaged at least 3× with serum to remove mouse neurons, and pre-treated at confluency with Ara-C (5 μM) (Sigma). Every 3-4 days, half of media was replaced with differentiation medium #2: Neurobasal-A, 2% B27+vitamin A, (Invitrogen) and same supplements in medium #1, without factors, except NEAA and Purmorphamine were removed, and BDNF (25 ng/mL) was added (R&D Systems). Media was replaced every 3-4 days.
FACS analysis and sorting was performed on FACS Aria II (BD Biosciences). Cells were gated for live cell DAN exclusion, small scatter size, single cells, NKX2.1-GFP signal, and PSA-NCAM-APC or -PE (Miltenyi Biotech) signal intensity. GFP-negative cells and isotype antibody (Santa Cruz) controls were used. Data was analyzed with Flowjo (Treestar) software. For live cell imaging, differentiation was similar to above, but 5,000 cells/well were plated into Aggrewell-800 plates (Stem Cell Technologies), and sEBs were plated en-bloc on day 4-7. Imaging was performed by time-lapse confocal microscopy with temperature (37° C.) and gas (5% O2, 5% CO2, 90% N2) controls (Leica SP5).
FIG. 24, Bottom Panel: Flow cytometry was used to determine the efficiency of generation of NKX2.1GFP+ MGE precursor cells using the small molecule inhibitors. The efficiency of generation of NKX2.1GFP+ MGE precursor cells was determined as what percent of cells of the cells analyzed were NKX2.1GFP+ MGE precursor cells.

hESC-derived cultures [1] = test: Viability of differentiating hESC cultures; assay type: cell-based, human; details: 2-6 μM purmorphamine
Experimental: (§1) SHH pathway activation was required for NKX2,1-GFP+ cell derivation. In this study, we used 1-2 μM of purmorphamine or 500 ng/mL of SHH. […] Addition of an FGF inhibitor (PD173074) from the onset of differentiation (d0-25) caused a decrease in cells expressing FOXG1 (55%), but addition of the same inhibitor on day 14 (d14-25) had no effect on FOXG1 levels (not shown). Therefore, similar to fetal forebrain development, early inhibition of WNT and activation of FGF signaling pathways, along with SHH activation, play roles in patterning the ventral-telencephalic-like identity of hESC-derived cultures.
Cost-effective cell production methods will be preferred over lengthy protocols and expensive recombinant protein-based reagents, and cryopreservation of cells will facilitate future work. Here, we used 3 small molecules (Y27632, SB431542, and purmorphamine) and 2 recombinant proteins (BMPRIA-Fc and DKK1). Several small molecule substitutes now exist for inhibition of BMP and WNT pathways. […] In addition, ˜25% of hESC-derived MGE-like cells were viable after cryopreservation and thawing, and thawed cells matured into neurons with functional properties as confirmed by electrophysiology.

hESC-derived cultures [2] = test: Cells expressing telencephalic FOXG1 in hESC-derived cultures; assay type: cell-based, human
Experimental: Cultured cells were fixed in 4% paraformaldehyde for 10-20 min. Mouse brains were fixed overnight-4° C. after trans-cardial perfusion and sectioned (50 μm) by vibratome or sliding microtome. EBs and human tissue were sectioned (25 μm) by cryostat. Cells and sections were stained: 5-10 min antigen retrieval with boiling 0.01M citrate buffer pH=6, 1 hr block with 5% serum and 0.1% triton X100 in PBS, overnight-4° C. primary antibody in block buffer (except triton-free buffer used for GABA antibody), wash 3× in PBS+tritonX100, 2 hr secondary antibody (Invitrogen), wash 4× in PBS+tritoriX100.
as §1

[3] = test system: spontaneous PSCs recorded from hESC-derived neurons post-injection; test: Whole-cell recording of spontaneous PSCs of transplanted hESC-derived neurons in mouse brain slices; assay type: cell-based, human; details: mouse brain slices 7 MPI
Experimental: (§2) For cultured neurons, the bath was constantly perfused with fresh recording medium containing (in mM): 145 NaCl, 3 KCl, 3 CaCl2, 2 MgCl2, 10 HEPES, 8 glucose. Transverse slices (300 μm) were cut on a […] (Leica VT1200S) and maintained in an incubation chamber with aCST containing (in mM): 110 Choline Cl, 2.5 KCl, 0.5 CaCl2, 7 MgCl2, 1.3 NaH2PO4, 25 NaHCO3, 10 glucose. Slice recording medium contained (in mM): 125 NaCl, 2.5 KCl, 2 CaCl2, 1.3 MgCl2, 1.3 NaH2PO4, 25 NaHCO3, 10 glucose. Recordings were made with an Axon 700B patch-clamp amplifier and 1320A interface (Axon Instruments). Signals were filtered at 2 kHz using amplifier circuitry, sampled at 10 kHz, and analyzed using Clampex 10.2 (Axon Instruments).
To examine whether hESC-derived MGE-like cells could develop into functional interneurons that synaptically integrate in vivo, we performed whole-cell recordings of RFP+ human cells in mouse brain slices seven MPI. […]
FIG. 7. hESC-derived MGE-like Interneuron Precursor Cell Maturation and Functional Integration in the Mouse Brain. • (A) Day 35 ML cultures FACS-sorted for NKX2.1-GFP and PSA-NCAM, and injected into newborn mouse cortex. […] Scale Bar: 50 μm. • (D-E) Quantification of histology at 2 (black), 4 (orange), and 7 (blue) MPI, and of SST, CALB, and CALR (E). […] Inset: RFP fluorescence of filled neuron 7 MPI. […]

GABAA receptor = test: Whole-cell patch recording of post-synaptic currents in cultured hESC-derived neurons and co-cultured human fetal cortical neurons; assay type: cell-based
Text: The patch electrodes were made from borosilicate glass capillaries (B-120-69-15, Sutter Instruments) with a resistance in the range of 5-7 MΩ. The pipettes were tip-filled with internal solution containing (in mM): 125 K-gluconate, 15 KCl, 10 HEPES, 4 MgCl2, 4 Na2ATP, 0.3 Na3GTP, 10 Tris-phosphocreatine, 0.2 EGTA.
as §2
Photostimulation was delivered by mercury lamp (75 mW) with a GFP excitation bandpass filter and light pulses were generated by Maste-8 (A.M.P.I.) through a high-speed shutter (UNIBLITZ), the power density of the blue light (Boyden, E. S., et al. (2005). Nat Neurosci 8, 1263-1268) (Nagel, G., et al. (2003). Proc Natl Acad Sci USA 100, 13940-13945) was 8-12 mW·mm−2, measured with a power meter (Coherent Instruments).
The percentage of neurons receiving sPSCs increased from 33.3% at eight WPD (n=12) to 82.1% at 12 WPD (n=28, FIG. 6C). To confirm that GABAergic neurons were able to send outputs to neighboring neurons, we transfected half of the neurons with Synapsin promoter—Channelrhodopsin2-EYFP (ChR2-EYFP) by lentiviral infection. […] The reversal potential of light-evoked PSCs was −32.7 mV (FIGS. 6F and 6G), close to the expected Cl-reversal potential under our recording conditions [−37.3 mV=−53.4 mV (by Nernst equation)±16.1 mV (junction potential)]. […]

c1ccc2c(Oc3nc(Nc4ccc(N5CCOCC5)cc4)c4ncn(C5CCCCC5)c4n3)cccc2c1 [purmorphamine]
GFP+ differentiation efficiency in EB cultures (HES-3 NKX2.1GFP/w hESCs; 2-6 μM purmorphamine versus 1-2 μM used): slightly increased | NKX2.1-GFP+ MGE precursor-like cell efficiency (HES-3 NKX2.1GFP/w hESCs; 25-day hybrid method, purmorphamine day 10-25, SB431542, BMPRIA-Fc and DKK1 throughout, FACS): 12% | NKX2.1-GFP+ MGE precursor cells (HES-3 NKX2.1GFP/w hESCs; B27 media throughout 25-day protocol, early addition of five factors (Y27632, SB431542, BMPRIA-Fc, DKK1, purmorphamine)): 70% | NKX2.1-GFP+ differentiation efficiency (HES-3 NKX2.1GFP/w hESCs; B27 media, early purmorphamine, inhibitors removed after two weeks (d14), protocol extended to day 35, FACS): up to 90% | NKX2.1-GFP+ MGE precursor-like cell efficiency (HES-3 NKX2.1GFP/w hESCs; as hybrid method but purmorphamine from day 0-25): 1.9% | viability of later-stage monolayer cultures (hESC-derived cultures [1]): decreased

CCN(CC)CCCCNc1ncc2cc(-c3cc(OC)cc(OC)c3)c(NC(=O)NC(C)(C)C)nc2n1 [PD173074]
cells expressing FOXG1 (hESC-derived cultures [2]; FGF inhibitor added from onset of differentiation (d0-25)): 55% | effect on FOXG1 levels (hESC-derived cultures [2]; FGF inhibitor added on day 14 (d14-25)): no effect

C[N+]1(C)CCc2cc3c(cc2[C@H]1[C@@H]1OC(=O)c2c1ccc1c2OCO1)OCO3.[I-] [BMI, bicuculline methiodide]
block of spontaneous PSCs with slow decay-time [3]: blocked | block of spontaneous post-synaptic currents (sPSC) (GABAA receptor; BMI 20 μM, hESC-derived neurons co-cultured with mouse glial cells, eight weeks post-differentiation): fully blocked | block of light-evoked PSCs (GABAA receptor; ChR2-EYFP hESC-derived neurons, blue light, neighboring neurons): reversible blockade | block of light-evoked GABAergic-specific PSCs in primary human fetal cortical neurons (GABAA receptor; co-culture seven weeks with ChR2 hESC-derived neurons): completely blocked

N#Cc1cc2nc(O)c(O)nc2cc1[N+](=O)[O-] [CNQX, 6-Cyano-2,3-dihydroxy-7-nitro-quinoxaline]
block of remaining spontaneous PSCs with fast decay-time ([3]; applied after BMI): blocked

B1: DKK1: Dickkopf homolog 1, recombinant protein WNT inhibitor (protein, UniProt O94907 32-266, looked up)
Dickkopf-related protein 1: TLNSVLNSNAIKNLPPPLGGAAGHPGSAVSAAPGILYPGGNKYQTIDNYQPYPCAEDEECGTDEYCASPTRGGDAGVQICLACRKRRKRCMRHAMCCPGNYCKNGICVSSDQNHFRGEIEETITESFGNDHSTLDGYSRRTTLSSKMYHTKGQEGSVCLRSSDCASGLCCARHFWSKICKPVLKEGQVCTKHRRKGSHGLEIFQRCYCGEGLSCRIQKDHHQASNSSRLHTCQRH
number of cells expressing telencephalic FOXG1 (hESC-derived cultures [2]; DKK1 WNT inhibitor absent): 45% | number of cells expressing telencephalic FOXG1 (hESC-derived cultures [2]; with DKK1 WNT inhibitor): 70% | GFP+ cell differentiation efficiency (HES-3 NKX2.1GFP/w hESCs; DKK1 WNT inhibitor absent versus present): similar
